{"source": "ChEMBL document CHEMBL1134247", "about": "“Glycosidase inhibition by cyclic sulfonium compounds” (Bioorg Med Chem Lett, 2001)", "key": {"[1]": {"test": "Inhibitory concentration of compound against Alpha-glucosidase from Baker's yeast; not active at less than 50% inhibition; call rule not given here", "set-up": "species or system Saccharomyces cerevisiae"}, "[2]": {"test": "Inhibitory concentration of compound against Alpha-glucosidase from rice"}, "Beta-galactosidase": {"target": "Beta-galactosidase (Escherichia coli, UniProt Q8VNN2)", "sequence (Q8VNN2 whole entry)": "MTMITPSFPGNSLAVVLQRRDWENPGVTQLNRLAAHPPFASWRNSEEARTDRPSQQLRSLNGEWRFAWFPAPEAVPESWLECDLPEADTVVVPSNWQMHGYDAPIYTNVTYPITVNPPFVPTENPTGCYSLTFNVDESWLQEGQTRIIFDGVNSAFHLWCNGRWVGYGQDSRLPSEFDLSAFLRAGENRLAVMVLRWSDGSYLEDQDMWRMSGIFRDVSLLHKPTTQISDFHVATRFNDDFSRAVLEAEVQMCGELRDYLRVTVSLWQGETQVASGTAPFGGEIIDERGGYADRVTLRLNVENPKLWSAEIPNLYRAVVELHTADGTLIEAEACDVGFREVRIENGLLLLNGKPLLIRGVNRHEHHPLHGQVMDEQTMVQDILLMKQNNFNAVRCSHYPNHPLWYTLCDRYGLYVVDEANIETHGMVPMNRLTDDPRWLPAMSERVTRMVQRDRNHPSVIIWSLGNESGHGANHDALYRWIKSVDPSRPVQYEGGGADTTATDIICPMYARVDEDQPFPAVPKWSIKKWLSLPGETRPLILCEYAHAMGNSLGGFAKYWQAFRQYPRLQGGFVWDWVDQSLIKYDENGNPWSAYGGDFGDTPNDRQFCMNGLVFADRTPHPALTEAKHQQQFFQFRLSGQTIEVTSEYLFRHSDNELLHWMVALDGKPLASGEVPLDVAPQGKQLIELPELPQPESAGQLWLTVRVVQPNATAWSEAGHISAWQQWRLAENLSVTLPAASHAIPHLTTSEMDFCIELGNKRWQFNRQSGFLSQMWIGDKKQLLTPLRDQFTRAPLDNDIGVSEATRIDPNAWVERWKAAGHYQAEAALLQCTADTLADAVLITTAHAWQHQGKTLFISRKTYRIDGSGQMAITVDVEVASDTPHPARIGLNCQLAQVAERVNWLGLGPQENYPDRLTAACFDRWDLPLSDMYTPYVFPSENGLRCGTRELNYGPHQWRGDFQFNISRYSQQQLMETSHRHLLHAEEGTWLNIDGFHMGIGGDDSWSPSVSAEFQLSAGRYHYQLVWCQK", "test": "Inhibitory effect towards Beta-galactosidase at a concentration of 2 mM from E. coli; no inhibitory effect"}, "[3]": {"test_system": "alpha-galactosidase (Coffea arabica)", "test": "Inhibitory effect towards Alpha-galactosidase at a concentration of 2 mM from coffee beans; no inhibitory effect"}, "Prunus dulcis": {"test_system": "Prunus dulcis", "test": "(§1) Inhibitory concentration of compound against Alpha-mannosidase of Almond"}, "[4]": {"test": "Inhibitory concentration of compound against Alpha-glucosidase in Bacillus stearothermophilus", "set-up": "species or system Geobacillus stearothermophilus"}, "[5]": {"test": "Inhibitory concentration of compound against Alpha-glucosidase in Baker's yeast; not active at less than 50% inhibition", "set-up": "species or system Saccharomyces cerevisiae"}, "[6]": {"test": "Inhibitory concentration of compound against Alpha-glucosidase in recombinant S. cerevisiae; not active", "set-up": "species or system Saccharomyces cerevisiae"}, "[7]": {"test": "Inhibitory concentration of compound against Alpha-glucosidase in rice"}, "[8]": {"test": "Inhibitory concentration of compound (10:1 ratio of 10a/10b) against Alpha-mannosidase of Almond", "set-up": "species or system Prunus dulcis"}, "[9]": {"test": "Inhibitory concentration of compound (4:6 ratio of 10a/10b) against Alpha-mannosidase of Almond", "set-up": "species or system Prunus dulcis"}, "[10]": {"test": "Inhibitory concentration of compound (10:1 ratio of 10a/10b) against Alpha-glucosidase from Bacillus stearothermophilus", "set-up": "species or system Geobacillus stearothermophilus"}, "[11]": {"test": "Inhibitory concentration of compound (10:1 ratio of 10a/10b) against Alpha-glucosidase from Baker's yeast", "set-up": "species or system Saccharomyces cerevisiae"}, "[12]": {"test": "Inhibitory concentration of compound (4:6 ratio of 10a/10b) against Alpha-glucosidase from Baker's yeast", "set-up": "species or system Saccharomyces cerevisiae"}, "[13]": {"test": "Inhibitory concentration of compound (10:1 ratio of 10a/10b) against Alpha-glucosidase from recombinant Saccharomyces cerevisiae"}, "[14]": {"test": "Inhibitory concentration of compound (4:6 ratio of 10a/10b) against Alpha-glucosidase from recombinant Saccharomyces cerevisiae"}, "[15]": {"test": "Inhibitory concentration of compound (10:1 ratio of 10a/10b) against Alpha-glucosidase from rice"}, "[16]": {"test": "Inhibitory concentration of compound (4:6 ratio of 10a/10b) against Alpha-glucosidase from rice"}, "[17]": {"test": "Inhibitory concentration of compound (4:6 ratio of 10a/10b) against Alpha-glucosidase from Bacillus stearothermophilus", "set-up": "species or system Geobacillus stearothermophilus"}, "[18]": {"test_system": "beta-glucosidase (Prunus dulcis)", "test": "Inhibitory concentration of compound (4:6 ratio of 10a/10b) against Beta-Glucosidase from Almond; not active"}, "[19]": {"test_system": "beta-glucosidase (Prunus dulcis)", "test": "Inhibitory concentration of compound (10:1 ratio of 10a/10b) against Beta-glucosidase from Almond; not active"}, "[20]": {"test": "Inhibitory concentration of compound against Alpha-glucosidase from B. stearothermophilus; not active at less than 50% inhibition", "set-up": "species or system Geobacillus stearothermophilus"}, "[21]": {"test": "Inhibitory concentration of compound against Alpha-glucosidase from recombinant S. cerevisiae; not active at less than 50% inhibition", "set-up": "species or system Saccharomyces cerevisiae"}, "[22]": {"test": "as §1", "set-up": "species or system Prunus dulcis"}, "[23]": {"test": "Inhibitory concentration of compound against Alpha-mannosidase of Almond; not active", "set-up": "species or system Prunus dulcis"}, "[24]": {"test": "Inhibitory concentration of compound against Alpha-glucosidase from rice; not active at less than 50% inhibition"}, "[25]": {"test_system": "beta-glucosidase (Prunus dulcis)", "test": "Inhibitory concentration of compound against Beta-glucosidase from Almond;not active"}}}
{"molecule": "O=S(=O)([O-])O[C@H](CO)[C@@H](O)C[S+]1CCCC1", "values": [{"measurement": "IC50", "setting": "[1]", "result": "Not Active"}, {"measurement": "IC50", "setting": "[2]", "result": 1000, "unit": "µM"}, {"measurement": "IC50", "setting": "Beta-galactosidase", "result": "No effect"}, {"measurement": "IC50", "setting": "[3]", "result": "No effect"}]}
{"molecule": "O=S(=O)([O-])O[C@@H](CO)[C@H](O)C[S@+]1C[C@@H](O)[C@H](O)[C@@H]1CO", "values": [{"measurement": "IC40", "setting": "Prunus dulcis", "result": 2100, "unit": "µM"}, {"measurement": "IC50", "setting": "[4]", "result": 2500, "unit": "µM"}, {"measurement": "IC50", "setting": "[5]", "result": "Not Active"}, {"measurement": "IC50", "setting": "[6]", "result": "Not Active"}, {"measurement": "IC50", "setting": "[7]", "result": 110, "unit": "µM"}]}
{"molecule": "C[S+]1C[C@@H](O)[C@H](O)[C@H]1CO.[I-]", "note": "(stereo partly specified)", "values": [{"measurement": "IC50", "setting": "[8]", "result": 2100, "unit": "µM"}, {"measurement": "IC50", "setting": "[9]", "result": 1200, "unit": "µM"}, {"measurement": "IC50", "setting": "[10]", "result": 250, "unit": "µM"}, {"measurement": "IC50", "setting": "[11]", "result": 360, "unit": "µM"}, {"measurement": "IC50", "setting": "[12]", "result": 2200, "unit": "µM"}, {"measurement": "IC50", "setting": "[13]", "result": 490, "unit": "µM"}, {"measurement": "IC50", "setting": "[14]", "result": 2100, "unit": "µM"}, {"measurement": "IC50", "setting": "[15]", "result": 410, "unit": "µM"}, {"measurement": "IC50", "setting": "[16]", "result": 2000, "unit": "µM"}, {"measurement": "IC50", "setting": "[17]", "result": 1400, "unit": "µM"}, {"measurement": "IC50", "setting": "[18]", "result": "Not Active"}, {"measurement": "IC50", "setting": "[19]", "result": "Not Active"}]}
{"molecule": "O=S(=O)([O-])O[C@H](CO)[C@@H](O)C[S@+]1C[C@@H](O)[C@H](O)[C@@H]1CO", "values": [{"measurement": "IC50", "setting": "[20]", "result": "Not Active"}, {"measurement": "IC50", "setting": "[1]", "result": "Not Active"}, {"measurement": "IC50", "setting": "[21]", "result": "Not Active"}, {"measurement": "IC50", "setting": "[2]", "result": 380, "unit": "µM"}, {"measurement": "IC50", "setting": "Beta-galactosidase", "result": "No effect"}, {"measurement": "IC50", "setting": "[22]", "result": 3600, "unit": "µM"}]}
{"molecule": "O=S(=O)([O-])O[C@@H](CO)[C@H](O)C[S+]1CCCC1", "values": [{"measurement": "IC50", "setting": "[23]", "result": "Not Active"}, {"measurement": "IC50", "setting": "[1]", "result": "Not Active"}, {"measurement": "IC50", "setting": "[24]", "result": "Not Active"}, {"measurement": "IC50", "setting": "[25]", "result": "Not Active"}]}
